From patent US9624214B2, “Amino-substituted imidazo[1,2-a]pyridinecarboxamides and their use” (BAYER PHARMA AKTIENGESELLSCHAFT, priority 2012, dated 2017)

What follows are compounds tested against T1, recombinant guanylate cyclase reporter cell line (Rattus norvegicus, UniProt P19686+P20595) (assay: B-2. Action on recombinant guanylate cyclase reporter cell line). Settings: MEC = minimal effective concentration; in some cases mean values from individual determinations.
T1 construct: expressed in transfected cells
T1 sequence (P20595 1-619): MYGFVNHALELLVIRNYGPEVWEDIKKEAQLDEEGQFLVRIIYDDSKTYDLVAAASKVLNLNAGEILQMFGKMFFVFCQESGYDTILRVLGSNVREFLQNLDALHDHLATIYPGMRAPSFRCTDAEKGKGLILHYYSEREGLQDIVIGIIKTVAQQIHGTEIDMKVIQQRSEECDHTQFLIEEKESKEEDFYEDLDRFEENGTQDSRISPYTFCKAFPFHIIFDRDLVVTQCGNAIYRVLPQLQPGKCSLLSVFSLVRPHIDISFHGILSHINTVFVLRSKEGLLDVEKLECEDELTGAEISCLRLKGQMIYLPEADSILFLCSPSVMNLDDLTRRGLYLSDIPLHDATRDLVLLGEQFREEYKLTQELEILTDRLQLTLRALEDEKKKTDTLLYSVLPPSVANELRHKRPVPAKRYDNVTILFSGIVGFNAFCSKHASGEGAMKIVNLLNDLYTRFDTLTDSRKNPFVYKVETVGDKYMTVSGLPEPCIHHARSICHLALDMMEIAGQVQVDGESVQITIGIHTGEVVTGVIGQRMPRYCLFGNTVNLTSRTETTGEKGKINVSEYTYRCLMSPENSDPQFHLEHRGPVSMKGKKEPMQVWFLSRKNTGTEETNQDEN
T1 sequence (P19686 1-690): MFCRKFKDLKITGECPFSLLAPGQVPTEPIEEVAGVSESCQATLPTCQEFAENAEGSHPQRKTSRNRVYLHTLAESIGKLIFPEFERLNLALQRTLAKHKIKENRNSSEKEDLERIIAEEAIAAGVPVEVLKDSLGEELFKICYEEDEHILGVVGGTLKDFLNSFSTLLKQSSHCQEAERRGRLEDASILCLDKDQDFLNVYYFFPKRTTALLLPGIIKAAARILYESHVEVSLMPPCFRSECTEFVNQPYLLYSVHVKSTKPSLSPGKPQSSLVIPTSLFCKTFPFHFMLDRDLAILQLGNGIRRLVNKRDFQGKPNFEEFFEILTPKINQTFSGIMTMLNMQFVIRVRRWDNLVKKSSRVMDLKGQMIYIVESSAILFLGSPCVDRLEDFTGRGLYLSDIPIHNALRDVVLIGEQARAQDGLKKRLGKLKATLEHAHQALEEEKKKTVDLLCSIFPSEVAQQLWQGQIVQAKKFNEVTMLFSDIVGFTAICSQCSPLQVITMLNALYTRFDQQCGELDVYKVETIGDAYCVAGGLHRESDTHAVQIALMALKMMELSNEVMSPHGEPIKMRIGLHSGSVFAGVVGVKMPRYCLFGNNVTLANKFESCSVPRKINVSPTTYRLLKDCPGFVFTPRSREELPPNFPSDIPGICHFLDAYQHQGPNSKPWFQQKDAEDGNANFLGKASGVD
Assay type: cell-based
Summary of the method: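 Rat recombinant guanylate cyclase reporter cell line measures cellular activity. Value reported as MEC (minimal effective concentration), sometimes averaged over individual determinations.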

Compound | MEC
Cc1cc(OCc2c(F)cccc2F)c2nc(C)c(C(=O)NCC(N)c3cccc(OCCO)c3)n2c1 (racemic) [Example 367, rac-N-{2-amino-2-[3-(2-hydroxyethoxy)phenyl]ethyl}-8-[(2,6-difluorobenzyl)oxy]-2,6-dimethylimidazo[1,2-a]pyridine-3-carboxamide] | 3.00 µM
COc1ccc(CC(C)(N)CNC(=O)c2c(C)nc3c(OCc4c(F)cccc4F)cc(C)cn23)cc1 (racemic) [Example 368, rac-N-[2-amino-3-(4-methoxyphenyl)-2-methylpropyl]-8-[(2,6-difluorobenzyl)oxy]-2,6-dimethylimidazo[1,2-a]pyridine-3-carboxamide] | 0.10 µM
Cc1cc(OCc2c(F)cccc2F)c2nc(C)c(C(=O)NCC(N)c3ccc(C)o3)n2c1 (racemic) [Example 369, rac-N-[2-amino-2-(5-methyl-2-furyl)ethyl]-8-[(2,6-difluorobenzyl)oxy]-2,6-dimethylimidazo[1,2-a]pyridine-3-carboxamide] | 0.30 µM
Cc1cc(OCc2c(F)cccc2F)c2nc(C)c(C(=O)NCC(N)c3cnn(C)c3)n2c1 (racemic) [Example 370, rac-N-[2-amino-2-(1-methyl-1H-pyrazol-4-yl)ethyl]-8-[(2,6-difluorobenzyl)oxy]-2,6-dimethylimidazo[1,2-a]pyridine-3-carboxamide] | 3.00 µM
Cc1cc(OCc2c(F)cccc2F)c2nc(C)c(C(=O)NCC(N)c3ccc4c(c3)OCCO4)n2c1 (racemic) [Example 371, rac-N-[2-amino-2-(2,3-dihydro-1,4-benzodioxin-6-yl)ethyl]-8-[(2,6-difluorobenzyl)oxy]-2,6-dimethylimidazo[1,2-a]pyridine-3-carboxamide] | 3.00 µM
Cc1cc(OCc2c(F)cccc2F)c2nc(C)c(C(=O)NCC(N)c3ccc4ncccc4c3)n2c1 (racemic) [Example 372, rac-N-[2-amino-2-(quinolin-6-yl)ethyl]-8-[(2,6-difluorobenzyl)oxy]-2,6-dimethylimidazo[1,2-a]pyridine-3-carboxamide] | 3.00 µM
Cc1cc(OCc2c(F)cccc2F)c2nc(C)c(C(=O)NCC(N)c3csc4ccccc34)n2c1 (racemic) [Example 373, rac-N-[2-amino-2-(1-benzothiophen-3-yl)ethyl]-8-[(2,6-difluorobenzyl)oxy]-2,6-dimethylimidazo[1,2-a]pyridine-3-carboxamide] | 3.00 µM
Cc1cc(OCc2c(F)cccc2F)c2nc(C)c(C(=O)NCC(N)c3cc(F)c(F)c(F)c3)n2c1 (racemic) [Example 374, rac-N-[2-amino-2-(3,4,5-trifluorophenyl)ethyl]-8-[(2,6-difluorobenzyl)oxy]-2,6-dimethylimidazo[1,2-a]pyridine-3-carboxamide] | 1.00 µM
Cc1cc(OCc2c(F)cccc2F)c2nc(C)c(C(=O)NCC(N)c3cccc(OC(F)F)c3)n2c1 (racemic) [Example 375, rac-N-{2-amino-2-[3-(difluoromethoxy)phenyl]ethyl}-8-[(2,6-difluorobenzyl)oxy]-2,6-dimethylimidazo[1,2-a]pyridine-3-carboxamide] | 3.00 µM
Cc1cc(OCc2c(F)cccc2F)c2nc(C)c(C(=O)NCC(N)c3cccc(C(F)(F)F)c3)n2c1 (racemic) [Example 376, rac-N-{2-amino-2-[3-(trifluoromethyl)phenyl]ethyl}-8-[(2,6-difluorobenzyl)oxy]-2,6-dimethylimidazo[1,2-a]pyridine-3-carboxamide] | 3.00 µM
Cc1cc(OCc2c(F)cccc2F)c2nc(C)c(C(=O)NCC(N)c3cccc(OC(F)(F)F)c3)n2c1 (racemic) [Example 377, rac-N-{2-amino-2-[3-(trifluoromethoxy)phenyl]ethyl}-8-[(2,6-difluorobenzyl)oxy]-2,6-dimethylimidazo[1,2-a]pyridine-3-carboxamide] | 3.00 µM
COc1cccc(C(N)CNC(=O)c2c(C)nc3c(OCc4c(F)cccc4F)cc(C)cn23)c1 (racemic) [Example 378, rac-N-[2-amino-2-(3-methoxyphenyl)ethyl]-8-[(2,6-difluorobenzyl)oxy]-2,6-dimethylimidazo[1,2-a]pyridine-3-carboxamide] | 1.00 µM
Cc1cc(OCc2c(F)cccc2F)c2nc(C)c(C(=O)NC(CN)c3ccc4ccccc4c3)n2c1 (racemic) [Example 379, rac-N-[2-amino-1-(2-naphthyl)ethyl]-8-[(2,6-difluorobenzyl)oxy]-2,6-dimethylimidazo[1,2-a]pyridine-3-carboxamide] | 1.00 µM
Cc1cc(OCc2c(F)cccc2F)c2nc(C)c(C(=O)NC(CN)c3cccc(OC(F)(F)F)c3)n2c1 (racemic) [Example 380, rac-N-{2-amino-1-[3-(trifluoromethoxy)phenyl]ethyl}-8-[(2,6-difluorobenzyl)oxy]-2,6-dimethylimidazo[1,2-a]pyridine-3-carboxamide] | 1.00 µM
Cc1cc(OCc2c(F)cccc2F)c2nc(C)c(C(=O)NC(CN)c3ccc4c(c3)OCO4)n2c1 (racemic) [Example 381, rac-N-[2-amino-1-(1,3-benzodioxol-5-yl)ethyl]-8-[(2,6-difluorobenzyl)oxy]-2,6-dimethylimidazo[1,2-a]pyridine-3-carboxamide] | 0.30 µM
COc1cccc(C(CN)NC(=O)c2c(C)nc3c(OCc4c(F)cccc4F)cc(C)cn23)c1 (racemic) [Example 382, rac-N-[2-amino-1-(3-methoxyphenyl)ethyl]-8-[(2,6-difluorobenzyl)oxy]-2,6-dimethylimidazo[1,2-a]pyridine-3-carboxamide] | 0.30 µM
Cc1cc(OCc2c(F)cccc2F)c2nc(C)c(C(=O)NC(CN)c3cccc(Br)c3)n2c1 (racemic) [Example 383, rac-N-[2-amino-1-(3-bromophenyl)ethyl]-8-[(2,6-difluorobenzyl)oxy]-2,6-dimethylimidazo[1,2-a]pyridine-3-carboxamide] | 0.30 µM
Cc1cc(OCc2c(F)cccc2F)c2nc(C)c(C(=O)NC(CN)c3ccc([N+](=O)[O-])cc3)n2c1 (racemic) [Example 384, rac-N-[2-amino-1-(4-nitrophenyl)ethyl]-8-[(2,6-difluorobenzyl)oxy]-2,6-dimethylimidazo[1,2-a]pyridine-3-carboxamide] | 0.30 µM
C=Cc1cccc(C(CN)NC(=O)c2c(C)nc3c(OCc4c(F)cccc4F)cc(C)cn23)c1 (racemic) [Example 385, rac-N-[2-amino-1-(3-ethenylphenyl)ethyl]-8-[(2,6-difluorobenzyl)oxy]-2,6-dimethylimidazo[1,2-a]pyridine-3-carboxamide] | 1.00 µM
COc1ccc(CC(C)(CN)NC(=O)c2c(C)nc3c(OCc4c(F)cccc4F)cc(C)cn23)cc1 (racemic) [Example 386, rac-N-[1-amino-3-(4-methoxyphenyl)-2-methylpropan-2-yl]-8-[(2,6-difluorobenzyl)oxy]-2,6-dimethylimidazo[1,2-a]pyridine-3-carboxamide] | 0.65 µM
Cc1cc(OCc2c(F)cccc2F)c2nc(C)c(C(=O)NC(CN)c3cnn(C)c3)n2c1 (racemic) [Example 387, rac-N-[2-amino-1-(1-methyl-1H-pyrazol-4-yl)ethyl]-8-[(2,6-difluorobenzyl)oxy]-2,6-dimethylimidazo[1,2-a]pyridine-3-carboxamide] | 10.0 µM
Cc1cc(OCc2c(F)cccc2F)c2nc(C)c(C(=O)NC(CN)c3ccc4c(c3)OCCO4)n2c1 (racemic) [Example 388, rac-N-[2-amino-1-(2,3-dihydro-1,4-benzodioxin-6-yl)ethyl]-8-[(2,6-difluorobenzyl)oxy]-2,6-dimethylimidazo[1,2-a]pyridine-3-carboxamide] | 0.30 µM
Cc1cc(OCc2c(F)cccc2F)c2nc(C)c(C(=O)NC(CN)c3csc4ccccc34)n2c1 (racemic) [Example 389, rac-N-[2-amino-1-(1-benzothiophen-3-yl)ethyl]-8-[(2,6-difluorobenzyl)oxy]-2,6-dimethylimidazo[1,2-a]pyridine-3-carboxamide] | 1.00 µM
